Values quoted from earlier work, collected in PMC9737391, “Trifluoromethylcinnamanilide Michael Acceptors for Treatment of Resistant Bacterial Infections” (International Journal of Molecular Sciences, 2022).
Read-outs that look alike come from different tables or passages of the source.

Legend:
[1] = test system: Plasmodium falciparum 3D7; design: method as in PMID 36431900; details: read-out: IC50 against Plasmodium falciparum 3D7; cited from earlier work
M. tuberculosis = test system: M. tuberculosis; design: method as in ref 26 = [26]; PMID 30087309; doi:10.3390/ijms19082318; 26. Pospisilova S. Kos J. Michnova H. Kapustikova I. Strharsky T. Oravec M. Moricz A.M. Bakonyi J. Kauerova T. Kollar P. Synthesis and spectrum of biological activities of novel N -arylcinnamamides In; details: MTT, at MIC values; cited from earlier work
M. tuberculosis H37Ra = test system: M. tuberculosis H37Ra; design: method as in ref 26 = [26]; PMID 30087309; doi:10.3390/ijms19082318; 26. Pospisilova S. Kos J. Michnova H. Kapustikova I. Strharsky T. Oravec M. Moricz A.M. Bakonyi J. Kauerova T. Kollar P. Synthesis and spectrum of biological activities of novel N -arylcinnamamides In; details: average over the named compounds; cited from earlier work
S. aureus ATCC 29213 = details: MTT, cited from earlier work

For `O=C(/C=C/c1ccccc1)Nc1ccc(Br)cc1Cl` [3f], the IC50 [1] is listed as 580 nM.

In the case of `O=C(/C=C/c1ccccc1)Nc1cc(Cl)cc(Cl)c1` [3d], the “inhibition of M. tuberculosis respiration” value (M. tuberculosis) is given as 77% and the “average MIC against M. tuberculosis H37Ra” value (M. tuberculosis H37Ra) is given as ~ 24 µM.

In the case of `O=C(/C=C/c1ccccc1)Nc1ccc(C(F)(F)F)c(F)c1` [3c], the “inhibition of S. aureus respiration” value (S. aureus ATCC 29213; at MIC value) is listed as 86%.

In the case of `O=C(/C=C/c1ccc(Cl)c(Cl)c1)Nc1cc(C(F)(F)F)cc(C(F)(F)F)c1` [4f], the “inhibition of S. aureus respiration” value (S. aureus ATCC 29213; at 0.25× MIC) is listed as 96%.
